Experimental data: patent US20200246403A1, “YEAST EXTRACT HAVING DIABETES PREVENTION EFFECT” (MITSUBISHI CORPORATION LIFE SCIENCES LIMITED, priority 2016, published 2020)

Tested on: rat myoblasts (L6 cells)
Test: Measurement of glucose uptake activity in rat myoblasts (L6 cells), 2-NBDG fluorescence
Format: cell-based
Conditions: insulin final concentration 100 nM (positive control), 100 μM 2-NBDG, 20 minutes
Protocol: Test 1: Measurement of Glucose Uptake Activity in Rat Myoblasts (L6 Cells)
L6 cells were seeded (1×10^4 cells/well) in a 96-well plate with a D-MEM medium (Dulbecco/Vogt modified Eagle's minimal essential medium) containing 10% fetal bovine serum, and pre-cultured for 48 hours (5% CO2, 37° C.) Then, the medium was replaced with a D-MEM medium containing 2% horse serum and culture was performed for 96 hours (5% CO2, 37° C.) to induce differentiation. Subsequently, the medium was replaced with a serum-free D-MEM medium, and synchronous culture was performed for 4 hours (5% CO2, 37° C.). Thereafter, the wells were washed with a KRPH buffer (Krebs Ringer Phosphate Hepes buffer), and 100 μL of a sample solution (final concentration 1 mg/mL or 5 mg/mL) dissolved in a KRPH buffer containing 100 μM 2-NBDG (2-deoxy-2-[(7-nitro-2,1,3-benzoxadiazol-4-yl)amino]-D-glucose) was added and incubated for 20 minutes (5% […], 37° C.). […] The fluorescence intensity of 2-NBDG, as the fluorescent glucose analogue incorporated into the cells, was measured at an excitation wavelength of 470 nm and a detection wavelength of 550 nm using a microplate reader. The glucose uptake activity was determined based on the following formula as the ratio of the fluorescence intensity (FS) in the case of making the sample solution react when the fluorescence intensity (FC) of the control was taken as 100. […]

In the case of insulin, the Glucose uptake activity is reported as “significantly increased”.
